# Values quoted from earlier work as cited in patent publication EP0307115A1, “Phenol esters” (IMPERIAL CHEMICAL INDUSTRIES PLC, priority 1987, dated 1989).
# Conditions: dosed orally in man
smiles,measurement,value
"O=C(NCCNCC(O)COc1ccc(O)cc1)N1CCOCC1 (racemic) [xamoterol, N-(2-[(RS)-2-hydroxy-3-(4-hydroxyphenoxy)-propylamino]ethyl)morpholine-4-carboxamide]","absorbed from the gastrointestinal tract, extent of the administered dose",9-10%
